Data from patent US9737535B2, “Methods for treating cancer using TOR kinase inhibitor combination therapy comprising administering substituted pyrazino[2,3-b]pyrazines” (Signal Pharmaceuticals, LLC, priority 2014, dated 2017).

What was measured:
[1] = tested on: caspase 3/7 activation in NCI-H441 cells; assay: Caspase-Glo 3/7 assay; type: cell-based; settings: 24 hours post-treatment, normalized to DMSO control, combination at 1:1
Description: Cell lines were maintained in the growth medium recommended by ATCC (American Type Culture Collection). […] The compounds were serially diluted in DMSO from the highest concentration of 30 μM (single compounds and in combination with constant a constant ratio of 1:1). […] The percentage of induction of apoptosis was normalized to DMSO control (no compound).

[2] = tested on: breast cancer cell line panel; assay: Anti-proliferation assay, seventeen breast cancer cell line panel; type: cell-based; settings: single agent, cell lines where the GI50 reached inhibition levels of greater than fifty percent, read-out: median GI50
From the text: Cells were thawed from a liquid nitrogen preserved state. […] After seventy-two hours, […] developed for endpoint analysis using ATPLite. […] The calculation for synergy score is provided below. […] Compound 1 had varying activity across the seventeen cell line panel.

[3] = tested on: cancer cell lines (T47D, MCF, MDA-MM468, HCC-70, SKBR-3, MM-453); assay: Anti-proliferation assay with +JQ1, cancer cell lines overall; type: cell-based; settings: treatment with +JQ1
Description: (§1) Cells were grown, treated and analyzed as described above, and synergy was calculated using the Chalice Software (Zalicus, Inc., Cambridge Mass.), described above. Cell lines used included T47D (human ductal breast epithelial tumor cell line), MCF (adenocarcinoma breast cancer cell line), MDA-MM468 (adenocarcinoma breast cancer cell line), HCC-70 (carcinoma, ductal breast cancer cell line), SKBR-3 (adenocarcinoma breast cancer cell line), MM-453 (adenocarcinoma breast cancer cell line).

MM-453 = assay: Anti-proliferation assay with +JQ1, Chalice synergy score; type: cell-based; settings: combination with +JQ1, average
Description: (§2) Cells were thawed from a liquid nitrogen preserved state.
(§3) The calculation for synergy score is provided below.
(§4) If T≧V0:100*[1−(T−V0)/(V−V0)]
as §1

HCC-70 = assay: as above; type: cell-based; settings: combination with +JQ1, average
Description: as §2, §3, §4, §1

MM-468 = assay: as above; type: cell-based; settings: combination with +JQ1, average
Description: as §2, §3, §4, §1

MCF-7 = assay: as above; type: cell-based; settings: combination with +JQ1, average
Description: as §2, §3, §4, §1

SKBR-3 = assay: as above; type: cell-based; settings: combination with +JQ1, average
Description: as §2, §3, §4, §1

T47-D = assay: as above; type: cell-based, human; settings: combination with +JQ1, average
Description: as §2, §3, §4, §1

HCC-1187 = assay: Anti-proliferation assay (ATPLite), Chalice synergy score; type: cell-based; parameters: scale not given here; settings: Compound 1 in combination with the named second active agent, 72 h, mean of n = 3 experiments in triplicate
From the text: as §2, §3, §4

HCC-1500 = assay: as above; type: cell-based; parameters: scale not given here; settings: Compound 1 in combination with the named second active agent, 72 h, mean of n = 3 experiments in triplicate
From the text: as §2, §3, §4

BT-20 = assay: as above; type: cell-based; parameters: scale not given here; settings: Compound 1 in combination with the named second active agent, 72 h, mean of n = 3 experiments in triplicate
From the text: as §2, §3, §4

HCC70 = assay: as above; type: cell-based; settings: Compound 1 in combination with second active agent; HCC-70; mean self-cross + 2σ threshold 3.45
From the text: as §2, §3, §4

MDA-MB-468 = assay: as above; type: cell-based; settings: Compound 1 in combination with second active agent, mean self-cross + 2σ threshold 4.66
From the text: as §2, §3, §4

MCF7 = assay: as above; type: cell-based; settings: Compound 1 in combination with second active agent, mean self-cross + 2σ threshold 3.07
From the text: as §2, §3, §4

HCC-1937 = assay: as above; type: cell-based; settings: Compound 1 in combination with the named second active agent, 72 h, mean of n = 3 experiments in triplicate
From the text: as §2, §3, §4

BT-474 = assay: as above; type: cell-based; settings: Compound 1 in combination with the named second active agent, 72 h, mean of n = 3 experiments in triplicate
From the text: as §2, §3, §4

HCC-1806 = assay: as above; type: cell-based; settings: Compound 1 in combination with the named second active agent, 72 h, mean of n = 3 experiments in triplicate
From the text: as §2, §3, §4

Hs-578-T = assay: as above; type: cell-based; settings: Compound 1 in combination with second active agent, mean self-cross + 2σ threshold 4.09
From the text: as §2, §3, §4

MDA-MB-231 = assay: as above; type: cell-based; settings: Compound 1 in combination with second active agent, mean self-cross + 2σ threshold 2.61
From the text: as §2, §3, §4

MDA-MB-436 = assay: as above; type: cell-based; settings: Compound 1 in combination with second active agent, mean self-cross + 2σ threshold 1.91
From the text: as §2, §3, §4

BT-549 = assay: as above; type: cell-based; settings: Compound 1 in combination with the named second active agent, 72 h, mean of n = 3 experiments in triplicate
From the text: as §2, §3, §4

MDA-MB-157 = assay: as above; type: cell-based; settings: Compound 1 in combination with second active agent, mean self-cross + 2σ threshold 4.68
From the text: as §2, §3, §4

HCC-1428 = assay: as above; type: cell-based; settings: Compound 1 in combination with the named second active agent, 72 h, mean of n = 3 experiments in triplicate
From the text: as §2, §3, §4

SMILES | % Caspase activation Mean (n = 3) ([1]; 0.1 μM) | % Caspase activation Mean (n = 3) ([1]; 0.3 μM) | % Caspase activation Mean (n = 3) ([1]; 1 μM) | % Caspase activation Mean (n = 3) ([1]; 3 μM) | % Caspase activation Mean (n = 3) ([1]; 10 μM) | Synergy score (HCC-1187) | Synergy score (HCC-1500) | Synergy score (BT-20) | Synergy score (HCC70) | Synergy score (MDA-MB-468) | Synergy score (MCF7) | Synergy score (HCC-1937) | Synergy score (BT-474) | Synergy score (HCC-1806) | Synergy score (Hs-578-T) | Synergy score (MDA-MB-231) | Synergy score (MDA-MB-436) | Synergy score (BT-549) | Synergy score (MDA-MB-157) | Synergy score (HCC-1428) | also measured
O=C(NOCC1CC1)c1ccc(F)c(F)c1Nc1ccc(I)cc1Cl [CI-1040] | 98.6% | 104.1% | 96.6% | 99.3% | 103.9% |  |  |  |  |  |  |  |  |  |  |  |  |  |  |  | % Caspase activation Mean (n = 3) ([1]; 30 μM): 124.2%
CCN1C(=O)CNc2ncc(-c3ccc(-c4nc[nH]n4)nc3C)nc21 [Compound 1, 1-ethyl-7-(2-methyl-6-(1H-1,2,4-triazol-3-yl)pyridin-3-yl)-3,4-dihydropyrazino[2,3-b]pyrazin-2(1H)-one] |  |  |  |  |  |  |  |  |  |  |  |  |  |  |  |  |  |  |  |  | GI50 [2]: 140 nM; Synergism [3]: Synergism was observed; Chalice Calculated Synergy Scores, Averages (MM-453): 16.37; Chalice Calculated Synergy Scores, Averages (HCC-70): 12.05; Chalice Calculated Synergy Scores, Averages (MM-468): 17.26; Chalice Calculated Synergy Scores, Averages (MCF-7): 7.37; Chalice Calculated Synergy Scores, Averages (SKBR-3): 9.59; Chalice Calculated Synergy Scores, Averages (T47-D): 8.74
CO[C@H]1CC[C@H](N2C(=O)CNc3ncc(-c4ccc(C(C)(C)O)nc4)nc32)CC1 [Compound 2, 7-(6-(2-hydroxypropan-2-yl)pyridin-3-yl)-1-((1r,4r)-4-methoxycyclohexyl)-3,4-dihydropyrazino-[2,3-b]pyrazin-2(1H)-one] | 69.9% | 66.4% | 67.7% | 77.7% | 80% |  |  |  |  |  |  |  |  |  |  |  |  |  |  |  | % Caspase activation Mean (n = 3) ([1]; 30 μM): 85.5%; Synergism [3]: Synergism was observed; Chalice Calculated Synergy Scores, Averages (MM-453): 7.03; Chalice Calculated Synergy Scores, Averages (HCC-70): 5.98; Chalice Calculated Synergy Scores, Averages (MM-468): 11.58; Chalice Calculated Synergy Scores, Averages (MCF-7): 2.07; Chalice Calculated Synergy Scores, Averages (SKBR-3): 6.14; Chalice Calculated Synergy Scores, Averages (T47-D): 4.02
O=C(Nc1cc(C(F)(F)F)cc(C(F)(F)F)c1)c1cc(Cl)ccc1O [IMD-0354] |  |  |  |  |  | 1.86 | 1.42 | 1.85 | 0.88 | 3.80 | 2.88 | 6.42 | 1.77 | 7.45 | 3.35 | 6.14 | 3.94 | 2.68 | 4.80 | 0.51 | 
C=CCn1c(=O)c2cnc(Nc3ccc(N4CCN(C)CC4)cc3)nc2n1-c1cccc(C(C)(C)O)n1 [MK1775] |  |  |  |  |  | 1.30 | 2.46 | 5.01 | 12.10 | 7.69 | 5.76 | 7.93 | 9.61 | 0.55 | 9.02 | 2.31 | 1.45 | 2.99 | 2.68 | 3.25 | 
NC1(c2ccc(-c3nc4ccn5c(=O)[nH]nc5c4cc3-c3ccccc3)cc2)CCC1 [MK-2206] |  |  |  |  |  | 10.60 | 2.02 | 13.10 | 13.30 | 10.80 | 12.10 | 11.40 | 8.24 | 7.33 | 12.60 | 3.39 | 5.55 | 9.17 | 9.00 | 4.09 | 
